Source: ChEMBL document CHEMBL1147876, “Synthesis of novel 3-amino-2-(4-chloro-2-mercaptobenzenesulfonyl)-guanidine derivatives as potential antitumor agents” (Eur J Med Chem, 2007)
Activity calls are given as the source filed them.

Tests used:
Type in all cases: functional, cell-based
MCF7 = experiment: Anticancer activity against human MCF7 cells at 100 uM
SF-268 = experiment: Anticancer activity against human SF268 cells at 100 uM
NCI-H460 = experiment: Anticancer activity against human NCI-H460 cells at 100 uM

Measured: Activity

C=CCN/C(=N/S(=O)(=O)c1cc(C(=O)Nc2ccccc2)c(Cl)cc1SCC(N)=O)NN
inactive: MCF7 | SF-268 | NCI-H460

C#CCN/C(=N/S(=O)(=O)c1cc(C)c(Cl)cc1SCC#N)NN
inactive: MCF7 | SF-268 | NCI-H460

C#CCN/C(=N/S(=O)(=O)c1cc(C)c(Cl)cc1SCC(N)=O)NN
inactive: MCF7 | SF-268 | NCI-H460

C#CCN/C(=N/S(=O)(=O)c1cc(C)c(Cl)cc1S)NN
inactive: MCF7 | SF-268 | NCI-H460

C#CCN/C(=N/S(=O)(=O)c1cc(C(=O)Nc2ccccc2)c(Cl)cc1S)NN
inactive: MCF7 | SF-268 | NCI-H460

C=CCN/C(=N/S(=O)(=O)c1cc(C)c(Cl)cc1SC)N/N=C/c1ccc([N+](=O)[O-])o1
inactive: MCF7 | SF-268 | NCI-H460

C=CCN/C(=N/S(=O)(=O)c1cc(C(=O)Nc2ccc(Cl)cc2)c(Cl)cc1SC)NN
inactive: MCF7 | SF-268 | NCI-H460

C#CCN/C(=N/S(=O)(=O)c1cc(C)c(Cl)cc1SCC(=O)c1ccccc1)NN
inactive: MCF7 | SF-268 | NCI-H460
